Drawing on ChEMBL document CHEMBL1157318, “Caryophyllene sesquiterpenoids from a fungicolous isolate of Pestalotiopsis disseminata” (2006), this text covers Activity and zone of inhibition for three compounds.

In one experiment the test system is Escherichia coli. Description: Antimicrobial activity against sEscherichia coli ATCC 25922 at 100 ug/disk by agar disk diffusion method. In kind it is functional, organism-based.
In a further experiment the test system is Aspergillus flavus. The experiment in a line: Antimicrobial activity against sAspergillus flavus NRRL 6541 at 200 ug/disk by agar disk diffusion method. The experiment is classed as functional, organism-based.
The test system of the next experiment is Bacillus subtilis. Description: Antimicrobial activity against Bacillus subtilis ATCC 6051 at 100 ug/disk by agar disk diffusion method. In kind it is functional. As to conditions: for zone of inhibition at 100 µg/disc: read-out: IZ.
In a further experiment the test system is Candida albicans. The experiment in a line: Antimicrobial activity against Candida albicans ATCC 14053 at 100 ug/disk by agar disk diffusion method. The experiment is classed as functional, organism-based.
The subject of a further experiment is Staphylococcus aureus. The experiment in a line: Antimicrobial activity against Staphylococcus aureus ATCC 29213 at 100 ug/disk by agar disk diffusion method. The settings on record: for zone of inhibition at 100 µg/disc: read-out: IZ. The experiment is classed as functional.
The test system of the next experiment is Fusarium verticillioides. Description: Antimicrobial activity against Fusarium verticillioides NRRL 25457 at 200 ug/disk by agar disk diffusion method. In kind it is functional, organism-based.

Each structure is given as a SMILES string. Calls of active or inactive are those of the source. The rule behind the calls is not given here.

On to `CC1(C)C[C@H]2[C@@]1(O)[C@@H](O)C[C@]1(C)[C@H](O)C=C[C@]21CO`, for which the outcome in the experiment on Escherichia coli, in the experiment with Aspergillus flavus, in the experiment with Bacillus subtilis, in the experiment on Candida albicans, in the experiment on Staphylococcus aureus and in the experiment with Fusarium verticillioides was inactive.

Take `CC1(C)C[C@H]2[C@@]1(O)[C@@H](O)C[C@]1(C)C=C[C@@H](O)[C@]21CO`: the result with Escherichia coli, with Aspergillus flavus, in the experiment on Candida albicans and in the experiment on Fusarium verticillioides was inactive. In addition, the zone of inhibition at 100 µg/disc in the experiment on Bacillus subtilis turned out to be 12 mm; with Staphylococcus aureus, 8 mm.

Regarding `CC1(C)C[C@@H]2/C(CO)=C\C=C/[C@@](C)(O)C[C@H](O)[C@]21O` [6-HYDROXYPUNCTAPORONIN B], the outcome in the experiment on Escherichia coli, in the experiment on Aspergillus flavus, with Candida albicans and in the experiment on Fusarium verticillioides was inactive. The zone of inhibition at 100 µg/disc in the experiment on Bacillus subtilis was determined as 12 mm; with Staphylococcus aureus it was 8 mm.
